These are literature values, as cited in patent US6462026B1, “Bicyclic leucomycins” (Enanta Pharmaceuticals, Inc., priority 2001, dated 2002).

Like-named read-outs stand apart in the source and are kept apart here.

One data set has as its system Gram-negative bacteria. As to conditions: relative to leucomycin A5, josamycin and midecamycin.
The conditions of data set [1]: dogs; compared with other 3″-O-acyl derivatives of leucomycin A5.
The conditions of data set [2]: monkeys; compared with other 3″-O-acyl derivatives of leucomycin A5.
The conditions of data set [3]: metabolites isolated from urine and plasma of adults given oral josamycin.
The conditions of data set [4]: parent compound rokitamycin.

Take `CCCC(=O)O[C@H]1[C@H](C)O[C@@H](O[C@H]2[C@H](N(C)C)[C@@H](O)[C@H](O[C@H]3[C@@H](CC=O)C[C@@H](C)[C@@H](O)/C=C/C=C/C[C@@H](C)OC(=O)C[C@@H](O)[C@@H]3OC)O[C@@H]2C)C[C@@]1(C)OC(=O)CC` [rokitamycin, 3″-O-propionyl leucomycin A5]: the “in vitro activity against Gram-negative bacteria” value with Gram-negative bacteria is given as “twice as high”. Also, the serum levels entry in data set [1] and in data set [2] was “highest serum levels” in each case.

On to `COC1C(OC(C)=O)CC(=O)OC(C)CC=CC=CC(O)C(C)CC(CC=O)C1OC1OC(C)C(OC2CC(C)(O)C(O)C(C)O2)C(N(C)C)C1O` (centres unmarked) [desisovaleryl josamycin], for which the antimicrobial activity result in data set [3] is “inactive”.

On to 5-hydroxyjosamycin, for which the antimicrobial activity entry in data set [3] is reported as “poor antimicrobial activity”.

`CCC(=O)O[C@H]1[C@H](C)O[C@@H](O[C@H]2[C@H](N(C)C)[C@@H](O)[C@H](O[C@H]3[C@@H](CC=O)C[C@@H](C)[C@@H](O)/C=C/C=C/C[C@@H](C)OC(=O)C[C@@H](O)[C@@H]3OC)O[C@@H]2C)C[C@@]1(C)O` [Leucomycin A7]: the “in vitro potency relative to the parent compound” value in data set [4] was “one-half”.

As for β-hydroxyisovaleryl josamycin, the antimicrobial activity result in data set [3] is on record as “poor antimicrobial activity”.

Turning to `COC1C(O)CC(=O)OC(C)CC=CC=CC(=O)C(C)CC(CC=O)C1OC1OC(C)C(OC2CC(C)(O)C(OC(=O)CC(C)C)C(C)O2)C(N(C)C)C1O` (centres unmarked) [Niddamycin], the “antibacterial activity in vitro” value with Gram-positive bacteria and in the data set with Mycoplasma spp. was “good antibacterial activity” throughout.

demycarosyl josamycin: in data set [3], the antimicrobial activity result was “inactive”.

For the compound “4″-debutyryl leucomycin A5 [Lecomycin V]”, the “in vitro potency relative to the parent compound” value in data set [4] is given as “one-tenth”.
